# Experimental data: patent EP2623502A1, “NOVEL COMPOUND HAVING STRIGOLACTONE-LIKE ACTIVITY AND USE THEREOF” (Riken, priority 2010, dated 2012)
# What was measured:
# rice d10 variant = test: Tiller (rice branching) inhibitory activity in hydroponic culture; type: in vivo; conditions: for activity of inhibiting the morphology of the tiller / length of the secondary tiller: rice d10 variant; for length of the secondary tiller: compared with untreated d10 variant (Figure 4)
# Description: In this Example, a rice d10 variant (Arite et al., Plant J, 51 (6) 1019-1029 (2007)) was used, and the strigolactone-like compound of the present invention was examined for its effects on this variant. […] In this d10 variant, the functions of a strigolactone biosynthetic enzyme are inhibited by the variation of the strigolactone biosynthetic gene so that the amount of endogenous strigolactone is decreased.
# First, rice seeds were sterilized for 30 minutes with 2.5% sodium hypochlorite containing 0.01% Tween-20 and then washed with sterilized water. Then, the seeds were germinated by culture for 2 days in sterilized water of 25°C under dark conditions. The germinated seeds were transferred to a hydroponic culture medium containing 0.6% agar and grown for 6 days under conditions of a 16-hour light period and an 8-hour dark period under a fluorescent light. […] The number of tillers and the length of each tiller were determined. In this context, the test compounds used were the strigolactone-like compounds BPMF, TFTF, CPMF, NPMF, FPMF, and IPMF shown in Figure 1A, NaMF described in Synthesis Example 3, and GR24 as a control at a concentration of 1 µM, 100 nM, or 10 nM.
# In the same way as in Example 1(1), the strigolactone-like compound was examined for its effects on rice tillers.
# In this context, the test compounds used were p-CPMF, m-CPMF, o-CPMF, o-FPMF (1-14), o-BPMF (1-15), p-BPMF, 1-NaphMF (1-16), 2-NaphMF (NaMF), CNMF (1-17), CQMF (1-19), and TeMF (1-18) and GR24 as a control at a concentration of 1 µM or 100 nM. Also, PMF and p-CBMF were used at a concentration of 1 µM.
# In this context, the test compounds used were 2-1 (2,3-DCMF), 2-2 (2,4-DCMF), 2-3 (2,5-DCMF), and 2-4 (2,6-DCMF) at a concentration of 1 µM, 100 nM, or 10 nM and GR24 as a control at a concentration of 1 µM or 100 nM.
# In this context, the test compounds used were p-BPMF, 2,4-DCMF (2-2), o-BBMF (3-1), o-BPMF (1-15), o-CBMF (3-2), o-CPMF, and o-FPMF (1-14) at a concentration of 100 nM or 10 nM, 2-16, 2-6, 2-17, 2-18, and 2-19 at a concentration of 0.1 µM or 1 µM, and GR24 as a control at a concentration of 1 µM or 100 nM.
# [1] = in water at 20°C; cited from earlier work
# [2] = system: Arabidopsis thaliana max3 variant; test: Branching inhibitory activity in hydroponic culture; type: in vivo; conditions: for activity of inhibiting the morphology of the tiller of the max3 variant: 5 µM in hydroponic culture solution, 15 days (Figure 6)
# Description: In this Example, the strigolactone-like compound BPMF of the present invention was examined for its effects on an Arabidopsis thaliana max3 variant. The Arabidopsis thaliana max3 variant is a strigolactone-deficient variant, as in the rice d10 variant, and is known to have a larger number of branches (Booker J. et al., Current Biology, 14: 1232-1238 (2004)).
# Briefly speaking, the surfaces of the respective seeds of wild-type Arabidopsis thaliana and the max3 variant were separately sterilized for 5 minutes with a 1% aqueous sodium hypochlorite solution. The thus-treated seeds of each strain were washed five times with sterilized water and allowed to absorb water at 4°C for 1 day under dark conditions. Then, the seeds were inoculated to a 1/2 MS medium containing 1% sucrose and 0.8% agar and cultured at 22°C for 15 days under conditions of a 16-hour day length under a fluorescent light (60 to 70 µmol m^-2 s^-1). […] Nine healthy seedlings were selected from each pot and further hydroponically cultured for 15 days (a total of 30 days) so as to prevent the above-ground part from being wetted by the hydroponic culture solution. The test compounds used were BPMF and GR24 (control). The test compound-containing hydroponic culture solution was replaced every three days.
# endogenous strigolactone = test: Measurement of amount of endogenous strigolactone (LC/MS-MS); type: in vivo, rice (Shiokari); conditions: 24 hours, 0.1 µM, 1 µM or 10 µM
# Description: In this Example, the amount of strigolactone exudates from a plant treated with the strigolactone-like compound was measured.
# A sterilized solution I (2.5% sodium hypochlorite and 0.01% Tween-20) was added to rice seeds (Shiokari) and shaken at room temperature for 15 minutes. The sterilized solution I was discarded, and a sterilized solution II (2.5% sodium hypochlorite) was added thereto and shaken at room temperature for 15 minutes. In a clean bench, the sterilized solution II was discarded, and the seeds were washed five times with sterilized water and left standing at 25°C for 2 days in a dark place. Two days later, the germinated seeds were transplanted in an agar medium for hydroponic rice culture and left standing at 25°C for 6 days under conditions of a 16-hour light period and an 8-hour dark period. […]
# To each hydroponic rice culture solution, 200 pg of d1-2'-epi-5-deoxystrigol per 10 mL of the hydroponic rice culture solution was added, followed by extraction with ethyl acetate (3 mL) twice. […] The sample was dried, dissolved in 50% acetonitrile, and analyzed by LC/MS-MS.
# To the rice root dipped in acetone, 200 pg of d1-2'-epi-5-deoxystrigol was added, and the root was then disrupted. […] The sample was dried, dissolved in 50% acetonitrile, and analyzed by LC/MS-MS.
# [3] = Stability test in water (residual compound by HPLC); type: physicochemical; conditions: 30 days in water at 20°C, read-out: stably present after being left in water
# Description: The strigolactone-like compound BPMF was left for 30 days in water at 20°C, and change in its activity was then determined. Briefly speaking, rice was hydroponically cultured in the same way as in the hydroponic rice culture solution test conducted in Example 3, and the amount of a residual compound in the resulting solution was calculated using HPLC. First, the hydroponic culture solution adjusted to a predetermined concentration was collected at regular intervals and filtered through a filter. Then, a predetermined amount (e.g., 10 µl) was analyzed by HPLC. The content was determined on the basis of an area value, and the degree of decomposition was calculated by comparison with a standard.
# parasitic weed = test: Parasitic weed germination-inducing activity (result not shown); type: in vivo; conditions: compared with p-BPMF
# Description: In this Example, the seeds of a parasitic weed Orobanche minor or Striga hermonthica were used, and the strigolactone-like compound of the present invention was examined for its parasitic weed germination-promoting activity.
# The Striga hermonthica seeds were dipped in a 0.5% sodium hypochlorite solution containing 0.03% Tween and sterilized by treatment for 3 minutes using an ultrasonic generator. The seeds were washed three times with sterilized water and surface-dried at 27°C. Then, approximately 50 seeds were left, for preculture, at room temperature for 10 to 12 days under dark conditions on an 8-mm glass fiber filter paper moistened with 50 µl of sterilized water. A solution of each test compound concentration-adjusted by dissolution in sterilized water was used in bioassay. A filter paper was placed on a 5-cm Petri dish, and 1 ml of the test compound solution or sterilized water for comparison was added thereto. The glass fiber filter paper with the precultured parasitic weed seeds placed thereon was put on the resulting Petri dish and cultured at 30°C for 24 hours, followed by calculation of the germination rate. The test compounds used were the strigolactone-like compound BPMF shown in Figure 1A and GR24 as control at a concentration of 50 µM. […]
# [4] = concentration of 100 nM, Example 8 (Figure 14)
# [5] = concentration of 100 nM, Example 10 (Figures 16-1, 16-2)
smiles,measurement,setting,value
CC1=CC(Oc2cccc(Cl)c2Cl)OC1=O (stereo not shown) [2-1],activity of inhibiting the morphology of the tiller,rice d10 variant; [4],high activity
CC1=CC(Oc2ccc(Cl)cc2Cl)OC1=O (stereo not shown) [2-2],activity of inhibiting the morphology of the tiller,rice d10 variant; [4],high activity
same,activity of inhibiting the morphology of the tiller,rice d10 variant; [5],high activity
CC1=CC(Oc2cc(Cl)ccc2Cl)OC1=O (stereo not shown) [2-3],activity of inhibiting the morphology of the tiller,rice d10 variant; [4],high activity
CC1=CC(Oc2ccc(Br)cc2Br)OC1=O (stereo not shown) [2-6],activity of inhibiting the morphology of the tiller,rice d10 variant; [5],high activity
CC1=CC(Oc2ccc(F)cc2F)OC1=O (stereo not shown) [2-16],activity of inhibiting the morphology of the tiller,rice d10 variant; [5],high activity
CC1=CC(Oc2ccc(I)cc2I)OC1=O (stereo not shown) [2-17],activity of inhibiting the morphology of the tiller,rice d10 variant; [5],high activity
CC1=CC(Oc2ccc(C(F)(F)F)cc2C(F)(F)F)OC1=O (stereo not shown) [2-18],activity of inhibiting the morphology of the tiller,rice d10 variant; [5],high activity
CC1=CC(Oc2ccc(C#N)cc2C#N)OC1=O (stereo not shown) [2-19],activity of inhibiting the morphology of the tiller,rice d10 variant; [5],high activity
CC1=CC(OC=C2C(=O)OC3C4=C(CCCC4(C)C)CC23)OC1=O (stereo not shown) [5-DS],half-life,[1],approximately 1.5 days
"CC1=CC(Oc2ccc(Br)cc2)OC1=O (stereo not shown) [BPMF, 5-(4-bromophenoxy)-3-methylfuran-2(5H)-one]",activity of inhibiting the morphology of the tiller of the max3 variant,[2],exhibited the activity of inhibiting the morphology of the tiller of the max3 variant
same,morphology of the max3 variant,"[2]; after 30-day growth, 1 µM (Figure 7)",restored its morphology similar to that of the wild-type strain
same,amount of endogenous strigolactone exudates from the rice root to the hydroponic culture solution,endogenous strigolactone; compared with GR24 (Figure 10),"decreased the amount of natural strigolactone synthesized, and this effect was higher than that of GR24"
same,amount of plant natural strigolactone synthesized,endogenous strigolactone; in the hydroponic rice culture solution and the rice root,decreased
same,morphology of the d10 variant,"rice d10 variant; after 12-day growth, 10 µM (Figure 3)",restored its morphology similar to that of the wild-type strain
same,concentration-dependent activity against the rice d10 variant,rice d10 variant; compared with GR24 (Figure 4),"strong activity, which was larger than that of the typical non-natural strigolactone GR24"
same,time-dependent change in the number of tillers,"rice d10 variant; d10 variant, 27, 37 and 47 days after treatment with 1 nM or 10 nM (Figure 5)",more effective and have more persistent activity than GR24
same,length of the secondary tiller,rice d10 variant,obviously inhibited
same,activity of inhibiting the morphology of the tiller,rice d10 variant; concentration of 10 nM (Figure 2),strongest activity
same,activity of inhibiting the morphology of the tiller,"rice d10 variant; concentration of 100 nM, Example 6 (Figures 12-1 to 12-3)",strongest activity
same,activity of inhibiting the morphology of the tiller,rice d10 variant; [5],high activity
same,remaining at 720 h,[3],≥ 95%
"CC1=CC(OC=C2C(=O)OC3c4ccccc4CC23)OC1=O (stereo not shown) [GR24, reference compound]",activity of inhibiting the morphology of the tiller of the max3 variant,[2],exhibited the activity of inhibiting the morphology of the tiller of the max3 variant
same,half-life,[1],approximately 10 days
CC1=CC(Oc2ccc3ccccc3c2)OC1=O (stereo not shown) [NaMF],activity of inhibiting the morphology of the tiller,"rice d10 variant; 6 days in hydroponic solution with compound at 1 µM, 100 nM or 10 nM (Figure 2)",slightly weaker than that of the other compounds
CC1=CC(Oc2ccc(C(F)(F)F)cc2)OC1=O (stereo not shown) [TFTF],length of the secondary tiller,rice d10 variant,obviously inhibited
CC1=CC(Oc2ccccc2Br)OC1=O (stereo not shown) [o-BPMF],parasitic weed germination-inducing activity,parasitic weed,stronger parasitic weed germination-inducing activity than that of p-BPMF
same,tiller inhibitory activity,rice d10 variant; result not shown,weak tiller inhibitory activity
same,activity of inhibiting the morphology of the tiller,rice d10 variant; [5],high activity
CC1=CC(Oc2ccccc2Cl)OC1=O (stereo not shown) [o-CPMF],activity of inhibiting the morphology of the tiller,rice d10 variant; [5],high activity
CC1=CC(Oc2ccccc2F)OC1=O (stereo not shown) [o-FPMF],activity of inhibiting the morphology of the tiller,rice d10 variant; [5],high activity
